Experimental findings from US11203591B2, “Substituted 6-azabenzimidazole compounds” (Gilead Sciences, Inc., priority 2018, dated 2021) are described below.

The target of one experiment is human HPK1 (MAP4K1) (Homo sapiens (Human), UniProt Q92918). Briefly: HPK1 IC50 Assay (TR-FRET peptide phosphorylation). Format: biochemical. To be noted: 0.15 nM HPK1, 10 μM ATP, 1 μM STK S1 peptide substrate; geometric mean. As for the experimental part: The enzymatic activity of human HPK1 (MAP4K1) was monitored in a biochemical assay in the presence or absence of compounds and using a synthetic peptide substrate. An increase in phosphorylation of the peptide by HPK1 was indicative of its kinase activity.
Sequence of human HPK1 (MAP4K1) (Q92918 17-274): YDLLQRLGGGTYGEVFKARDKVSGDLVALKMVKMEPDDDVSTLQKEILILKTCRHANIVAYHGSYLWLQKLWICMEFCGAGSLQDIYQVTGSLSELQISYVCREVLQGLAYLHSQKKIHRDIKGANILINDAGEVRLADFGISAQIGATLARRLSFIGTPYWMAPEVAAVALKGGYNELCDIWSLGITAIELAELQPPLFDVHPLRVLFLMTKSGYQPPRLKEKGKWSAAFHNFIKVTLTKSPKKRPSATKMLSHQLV
Recombinant HPK1 kinase domain produced via baculovirus infection of insect cells was obtained from Proteros (Proteros Biostructures #PR-0322) and was pre-activated in the presence of 2 mM ATP (Sigma-Aldrich, cat #GE27-2056-01) and 2 mM magnesium chloride for 16 hours at 4° C. The protein reaction mixture was then loaded to a desalting column (Thermo Fisher Scientific, Cat #89889) to remove excess ATP. HPK1 was eluted with buffer containing 20 mM Tris (2-Amino-2-(hydroxymethyl)propane-1,3-diol) pH 8.0, 150 mM NaCl, 2 mM dithiothreitol and 5% glycerol, and was frozen at −80° C. for later use. HPK1 dual phosphorylation was confirmed by mass spectrometry.
Ten nanoliters of test compounds dissolved in DMSO at various concentrations were dispensed into a 384-well ProxiPlate (PerkinElmer #6008289). Five microliters of a solution of recombinant HPK1 diluted in HPK1 kinase assay buffer (50 mM BES [N,N-Bis(2-hydroxyethyl)-2-aminoethanesulfonic acid], pH 7.0; 10 mM magnesium chloride; 0.01% Triton X-100; 1 mM dithiothreitol; 0.01% bovine serum albumin; 0.1 mM sodium orthovanadate) was added to the compound-containing plate and was incubated for 15 minutes at 25° C. Five microliters of a mixture of ATP (Sigma-Aldrich #A6559) and peptide substrate STK S1 (Cisbio #61ST1BLC) diluted in HPK1 kinase assay buffer was then added to start the reaction. Final concentrations were 0.15 nM for HPK1, 10 μM for ATP, and 1 μM for the STK S1 peptide substrate. The reaction mixture was incubated at 25° C. for 3 hours and was stopped with the addition of 10 μl of an EDTA (Ethylenediaminetetraacetic acid)-containing detection buffer (Cisbio #62SDBRDF) supplemented with Europium cryptate-labeled anti-phospho-serine/threonine antibodies (Cisbio #62ST1PEJ) and XL665-labeled streptavidin (Cisbio #610SAXLG). The mixture was incubated for 16 hours at room temperature and peptide phosphorylation was measured by time-resolved fluorescence energy transfer (665 nm/620 nm) on an Envision plate reader (PerkinElmer).
Data in Table 1 were normalized based on positive (staurosporine) and negative (DMSO) controls. Least squares curve fittings were performed using a four-parameter variable slope nonlinear regression model. IC50 is defined as the concentration of compound required to inhibit 50% of maximum phosphorylation. IC50 values from multiple experiments were averaged by geometric mean and the standard deviation was calculated.
Broadly, the IC50 is the point on the concentration scale where inhibition reaches its midpoint. With `CC(C)NC(=O)c1cc(Nc2nc(-c3cnc4c(c3)N([C@H]3C[C@@](C)(N5CCCCC5)C3)C(=O)C4(C)C)cc3ncn(C(C)C)c23)c(F)c(F)c1Cl` [Example 267, 2-chloro-5-((6-(3,3-dimethyl-1-((1s,3s)-3-methyl-3-(piperidin-1-yl)cyclobutyl)-2-oxo-2,3-dihydro-1H-pyrrolo[3,2-b]pyridin-6-yl)-3-isopropyl-3H-imidazo[4,5-c]pyridin-4-yl)amino)-3,4-difluoro-N-isopropylbenzamide], half-maximal inhibition (IC50) was put at 0.1 nM.

Staying with this experiment, now noted: recombinant HPK1 kinase domain 0.15 nM, 10 μM ATP, 1 μM STK S1 peptide; geometric mean of multiple experiments.
In the case of `CC(C)n1cnc2cc(-c3cnc4c(c3)N([C@H]3C[C@@](C)(N5CCC6CC6C5)C3)C(=O)C4(C)C)nc(Nc3cc(C(=O)NC4(CF)CC4)c(Cl)c(F)c3F)c21` (mixture of isomers) [Example 257, 5-((6-(1-((1s,3s)-3-(3-azabicyclo[4.1.0]heptan-3-yl)-3-methylcyclobutyl)-3,3-dimethyl-2-oxo-2,3-dihydro-1H-pyrrolo[3,2-b]pyridin-6-yl)-3-isopropyl-3H-imidazo[4,5-c]pyridin-4-yl)amino)-2-chloro-3,4-difluoro-N-(1-(fluoromethyl)cyclopropyl)benzamide], the IC50 turned out to be 0.1 nM.
On to `Cc1ccc(Nc2nc(-c3ccc4c(c3)N([C@H]3C[C@@H](N5CCCCC5)C3)C(=O)C4(C)C)cc3ncn(C(C)C)c23)cc1C(=O)N[C@H](C)C(F)F` [Example 21B, N-(1,1-difluoropropan-2-yl)-5-((6-(3,3-dimethyl-2-oxo-1-((1s,3s)-3-(piperidin-1-yl)cyclobutyl)indolin-6-yl)-3-isopropyl-3H-imidazo[4,5-c]pyridin-4-yl)amino)-2-methylbenzamide], for which the IC50 came out at 0.07 nM.
`CC(C)NC(=O)c1cc(Nc2nc(-c3ccc4c(c3)N([C@H]3C[C@@H](N5CCCCC5)C3)C(=O)C4(C)C)cc3ncn(C(C)C)c23)c(F)cc1Cl` [Example 117]: the IC50 is 0.2 nM.
As to `CNC(=O)c1cc(Nc2nc(-c3ccc4c(c3)N([C@H]3C[C@@H](NCC(C)(C)F)C3)C(=O)C4(C)C)cc3ncn(C(C)C)c23)ccc1C` [Example 82], the IC50 is 0.08 nM.
Still for that read-out and setting: for `CC(C)n1cnc2cc(-c3cnc4c(c3)N([C@H]3C[C@@](C)(N5CC6CC6C5)C3)C(=O)C4(C)C)nc(Nc3cc(C(=O)NC4(C(F)F)CC4)c(Cl)c(F)c3F)c21` (some centres unmarked) [Example 234, 5-((6-(1-((1s,3s)-3-(3-Azabicyclo[3.1.0]hexan-3-yl)-3-methylcyclobutyl)-3,3-dimethyl-2-oxo-2,3-dihydro-1H-pyrrolo[3,2-b]pyridin-6-yl)-3-isopropyl-3H-imidazo[4,5-c]pyridin-4-yl)amino)-2-chloro-N-(1-(difluoromethyl)cyclopropyl)-3,4-difluorobenzamide] the value was 0.3 nM.
The same measure, in the same setting: for `CNC(=O)c1cc(Nc2nc(-c3ccc4c(c3)N([C@H]3C[C@@H](N5CCCCC5)C3)C(=O)C43CCN(C4COC4)CC3)cc3ncn(C4CC4)c23)ccc1C` [Example 173] the value was 0.08 nM; for `CNC(=O)c1cc(Nc2nc(-c3ccc4c(c3)N([C@H]3C[C@@H](N5CCCCC5)C3)C(=O)C43CCOCC3)cc3ncn(C4CC4)c23)ccc1C` [Example 127], 0.1 nM.
For `CC(C)n1cnc2cc(-c3cnc4c(c3)N([C@H]3C[C@@](C)(N5CCC[C@@H](F)C5)C3)C(=O)C4(C)C)nc(Nc3cc(C(=O)NC4(C(F)F)CC4)c(Cl)c(F)c3F)c21` [Example 201, 2-Chloro-N-(1-(difluoromethyl)cyclopropyl)-3,4-difluoro-5-((6-(1-((1S,3s)-3-((R)-3-fluoropiperidin-1-yl)-3-methylcyclobutyl)-3,3-dimethyl-2-oxo-2,3-dihydro-1H-pyrrolo[3,2-b]pyridin-6-yl)-3-isopropyl-3H-imidazo[4,5-c]pyridin-4-yl)amino)benzamide], the IC50 stood at 0.2 nM.
In the case of `CNC(=O)c1cc(Nc2nc(-c3ccc4c(c3)N([C@H]3C[C@@H](N5CC(C)(C)CC(C)(C)C5)C3)C(=O)C43CCN(C(C)=O)CC3)cc3ncn(C4CC4)c23)ccc1C` [Example 160], the IC50 was 0.08 nM.
The same measure, in the same setting: for `CC(C)n1cnc2cc(-c3ccc4c(c3)N([C@H]3C[C@@H](N5CCCCC5)C3)C(=O)C4(C)C)nc(Nc3cc(C(=O)NC4(C(F)F)CC4)c(Cl)c(F)c3F)c21` [Example 244, 2-chloro-N-(1-(difluoromethyl)cyclopropyl)-5-((6-(3,3-dimethyl-2-oxo-1-((1s,3s)-3-(piperidin-1-yl)cyclobutyl)indolin-6-yl)-3-isopropyl-3H-imidazo[4,5-c]pyridin-4-yl)amino)-3,4-difluorobenzamide] the value was 0.05 nM; for `CC(C)n1cnc2cc(-c3cnc4c(c3)N([C@H]3C[C@@](C)(N5CCCCC5)C3)C(=O)C4(C)C)nc(Nc3cc(C(=O)NC4(C(F)F)CC4)c(Cl)cc3F)c21` [Example 202, 2-Chloro-N-(1-(difluoromethyl)cyclopropyl)-5-((6-(3,3-dimethyl-1-((1s,3s)-3-methyl-3-(piperidin-1-yl)cyclobutyl)-2-oxo-2,3-dihydro-1H-pyrrolo[3,2-b]pyridin-6-yl)-3-isopropyl-3H-imidazo[4,5-c]pyridin-4-yl)amino)-4-fluorobenzamide], 0.1 nM.
Regarding `CC(C)n1cnc2cc(-c3cnc4c(c3)N([C@H]3C[C@@](C)(N5CCCCCC5)C3)C(=O)C4(C)C)nc(Nc3cc(C(=O)NC4(CF)CC4)c(Cl)c(F)c3F)c21` [Example 249, 5-((6-(1-((1s,3s)-3-(azepan-1-yl)-3-methylcyclobutyl)-3,3-dimethyl-2-oxo-2,3-dihydro-1H-pyrrolo[3,2-b]pyridin-6-yl)-3-isopropyl-3H-imidazo[4,5-c]pyridin-4-yl)amino)-2-chloro-3,4-difluoro-N-(1-(fluoromethyl)cyclopropyl)benzamide], the IC50 came to 0.04 nM.
The same measure, in the same setting: for `CC[C@H](C)n1cnc2cc(-c3ccc4c(c3)N([C@H]3C[C@@H](N5CCCCC5)C3)C(=O)C43CCN(C(=O)OC)CC3)nc(Nc3ccc(C)c(C(=O)NC)c3)c21` [Example 169] the value was 0.1 nM; for `Cc1cc(F)c(Nc2nc(-c3cnc4c(c3)N([C@H]3C[C@@](C)(N5CCCCC5)C3)CC4(C)C)cc3ncn(C(C)C)c23)cc1C(=O)NC1(C(F)F)CC1` [Example 219, N-(1-(Difluoromethyl)cyclopropyl)-5-((6-(3,3-dimethyl-1-((1s,3s)-3-methyl-3-(piperidin-1-yl)cyclobutyl)-2,3-dihydro-1H-pyrrolo[3,2-b]pyridin-6-yl)-3-isopropyl-3H-imidazo[4,5-c]pyridin-4-yl)amino)-4-fluoro-2-methylbenzamide], 0.2 nM; for `CC(C)n1cnc2cc(-c3cnc4c(c3)N([C@H]3C[C@@](C)(N5CCCOCC5)C3)C(=O)C4(C)C)nc(Nc3cc(C(=O)NC4(C(F)F)CC4)c(Cl)c(F)c3F)c21` [Example 198, 2-Chloro-N-(1-(difluoromethyl)cyclopropyl)-5-((6-(3,3-dimethyl-1-((1s,3s)-3-methyl-3-(1,4-oxazepan-4-yl)cyclobutyl)-2-oxo-2,3-dihydro-1H-pyrrolo[3,2-b]pyridin-6-yl)-3-isopropyl-3H-imidazo[4,5-c]pyridin-4-yl)amino)-3,4-difluorobenzamide], 0.01 nM.
`CC(C)n1cnc2cc(-c3ccc4c(c3)N([C@H]3C[C@@](C)(N5CCCCC5)C3)C(=O)C4(C)C)nc(Nc3cc(C(=O)NC4(C(F)F)CC4)c(Cl)c(F)c3F)c21` [Example 241, 2-Chloro-N-(1-(difluoromethyl)cyclopropyl)-5-((6-(3,3-dimethyl-1-((1s,3s)-3-methyl-3-(piperidin-1-yl)cyclobutyl)-2-oxoindolin-6-yl)-3-isopropyl-3H-imidazo[4,5-c]pyridin-4-yl)amino)-3,4-difluorobenzamide]: the IC50 was determined as 0.1 nM.
Still for that read-out and setting: for `Cc1c(C(=O)NC2(C(F)F)CC2)cc(Nc2nc(-c3cnc4c(c3)N([C@H]3C[C@@H](N5C[C@H]6CC[C@@H]5C6)C3)C(=O)C4(C)C)cc3ncn(C(C)C)c23)c(F)c1F` [Example 64] the value was 0.1 nM; for `CC(C)NC(=O)c1cc(Nc2nc(-c3ccc4c(c3)N([C@H]3C[C@@H](N5CCCCC5)C3)C(=O)C4(C)C)cc3ncn(C(C)C)c23)ccc1Cl` [Example 115], 0.1 nM.
Take `CNC(=O)c1cc(Nc2nc(-c3ccc4c(c3)N([C@H]3C[C@@H](N5CCCC(C(F)F)C5)C3)C(=O)C4(C)C)cc3ncn(C(C)C)c23)ccc1C` (some centres unmarked) [Example 105, 5-((6-(1-((1s,3s)-3-(3-(difluoromethyl)piperidin-1-yl)cyclobutyl)-3,3-dimethyl-2-oxoindolin-6-yl)-3-isopropyl-3H-imidazo[4,5-c]pyridin-4-yl)amino)-N,2-dimethylbenzamide]: the IC50 was found to be 0.2 nM.
